In patent US20080085264A1, “METHODS FOR ENHANCING STEM CELL ENGRAFTMENT DURING TRANSPLANTATION” (priority 2003, published 2008):

Assays:
[1] = tested on: C57BL/6 mice; assay: G-CSF induced mobilization of HSC/HPC in C57BL/6 mice (progenitor cell assays of peripheral blood); assay type: in vivo, mouse; conditions: inhibitor 5 μmol/mouse 2×/day s.c. during G-CSF mobilization, C57BL/6
Procedure: (§1) Mobilization was achieved by treating mice with 2.5 μg (micrograms) G-CSF/mouse 2×/day s.c. for 2 days (Broxmeyer H E, et al. J Exp Med. 1999; 189:1987-1992). Mice simultaneously treated with a specific CD26 inhibitor also underwent treatment with either 5 μmol Diprotin A/mouse 2×/day s.c. for 2 days or 5 μmol Val-Pyr/mouse 2×/day s.c. for 2 days. Diprotin A was obtained commercially (Peptides International, Louisville, Ky.) and Val-Pyr was obtained as a gift from Nicolai Wagtmann (Novo Nordisk, Denmark). After either G-CSF or G-CSF plus CD26 inhibitor treatment peripheral blood cells were collected and total cellular nuclearity was measured and progenitor cell assays were performed using total peripheral blood cells.
(§2) One-hundred thousand mouse G-CSF mobilized peripheral blood cells were plated in triplicate for colony formation by CFU-GM, BFU-E, and CFU-GEMM and scored at 7 days incubation as previously described (Cooper S, Broxmeyer H E. Measurement of interleukin-3 and other hematopoietic growth factors, such as GM-CSF, G-CSF, M-CSF, erkythropoietin and the potent co-stimulating cytokines steel factor and FLt-3 ligand. In: Coligan J E K A, Margulies D H, Shevach E M, Strober E, Coico R, ed. Current protocols in immunology. New York: John Wiley & Sons; 1996:6.4.1-6.4.12). Cells were plated for colony formation in 1% methylcellulose culture medium containing 30% FBS, 1 U/ml recombinant(r) human Epo, 0.1 mM Hemin, 5% Pokeweed Mitogen Spleen Conditioned Media (PWMSCM), and 50 ng/ml rmouse Steel Factor (=Stem Cell Factor, SCF).

[2] = tested on: BoyJ recipient mice; assay: Non-competitive long-term engraftment; assay type: in vivo, mouse; conditions: six months post transplant, P<0.05, n=5
Procedure: Control C57BL/6 (CD45.2^+) or CD26 inhibitor treated C57BL/6 (CD45.2^+) LD donor BM cells were transplanted by tail-vein injection into lethally irradiated (1100 cGy split dose) congenic BoyJ (CD45.1^+) female recipient mice (Haneline L S, et al. Blood. 1999; 94:1-8). Contribution of donor cells was obtained by measuring the number of donor and residual recipient lymphocytes in the peripheral blood. The % donor contribution was calculated by flow cytometric analysis of peripheral blood lymphocytes found in the recipient mouse peripheral blood by measuring CD45.1^+ and CD45.2^+ on cells isolated from the recipient mice 1-6 months post transplant. No less than five mice from each recipient group were analyzed, each one having received a transplant of 5×10^5 pooled LD donor BM cells. Comparisons between treatment groups were made using a two-tailed Student's t-test and data was plotted as mean (M)±standard error of the mean (SEM).

[3] = tested on: Sca-1+c-kit-lin- mBM cells; assay: Chemotaxis assay, CXCL12 induced migration of sorted Sca-1+c-kit-lin- mBM cells; assay type: cell-based, mouse; conditions: 5 mM Diprotin A
Procedure: Chemotaxis assays were performed using 96-well chemotaxis chambers (NeuroProbe, Gaithersburg, Md.) in accordance with manufacturer's instructions as described previously with minor variations (Christopherson K W, 2nd, et al. J Immunol. 2002; 169:7000-7008; Christopherson K W, 2nd, et al. Blood. 2001; 98:3562-3568; Christopherson K, 2nd, et al. Immunol Lett. 1999; 69:269-273). Briefly 300 μl of RPMI supplemented with 10% FBS and either 0, 100, 200, and 400 ng/ml of mouse CXCL12 chemokine was added to the lower chamber. Ten-thousand sorted cells in 50 μL of media were added to the upper side of the membrane (5.7 mm diameter, 5 μm pore size, polycarbonate membrane.)
Total cell number in the lower well was obtained by counting using hemocytometer after 4 hours of incubation at 37° C., 5% CO2. Percent migration was calculated by dividing the number of the cells in the lower well by the total cell input multiplied by 100 and subtracting random migration (always less than 5%) to the lower chamber without chemokine presence. Three samples were analyzed separately in triplicate, and then the data averaged for statistical analysis.
The N-terminal truncated mouse CXCL12 (CXCL12 (amino acids 3-68)) was produced by treatment of mouse CXCL12 with DPPIV (Enzyme Systems Products, Livermore, Calif.) for 18 hrs at 37° C. in PBS pH 7.4. […]

[4] = tested on: DBA/2 mice; assay: G-CSF induced mobilization of HSC/HPC in DBA/2 mice (progenitor cell assays of peripheral blood); assay type: in vivo, mouse; conditions: inhibitor treatment during G-CSF mobilization
Procedure: as §1, §2

[5] = tested on: DBA/2 mice; assay: as above; assay type: in vivo, mouse; conditions: without G-CSF

Substance: Ile-Pro-Ile [Diprotin A]
- reduction in BFU-E compared to G-CSF alone [1]: 29%
- reduction in CFU-GEMM compared to G-CSF alone [1]: 63%
- reduction in CFU-GM compared to G-CSF alone [1]: 59%
- donor cell contribution to the formation of peripheral blood leukocytes [2]: Increased donor cell contribution
- increase in total cell migration ([3]; 100 ng/ml CXCL12): 2.5 fold
- increase in total cell migration ([3]; 200 and 400 ng/ml CXCL12): two-fold
- reduction in BFU-E compared to G-CSF alone [4]: 56%
- reduction in CFU-GEMM compared to G-CSF alone [4]: 71%
- reduction in CFU-GM compared to G-CSF alone [4]: 62%
- effect on the mobilization of progenitors, inhibitor alone [5]: little or no effect
